Key:
Ctenocephalides felis [1] = assay: Ctenocephalides felis - in vitro contact tests with adult cat fleas; assay type: in vivo; settings: application rate 5 μg/cm^2 (=500 g/ha), after 48 h (dead or moribund)
Experimental: Ctenocephalides felis—In Vitro Contact Tests with Adult Cat Fleas
For the coating of the test tubes, 9 mg of active ingredient are first dissolved in 1 ml of acetone p.a. and then diluted to the desired concentration with acetone p.a. 250 μl of the solution are distributed homogeneously on the inner walls and base of a 25 ml test tube by turning and rocking on an orbital shaker (rocking rotation at 30 rpm for 2 h). With 900 ppm active ingredient solution and internal surface area 44.7 cm^2, given homogeneous distribution, an area-based dose of 5 μg/cm^2 is achieved.
After the solvent has evaporated off, the tubes are populated with 5-10 adult cat fleas (Ctenocephalides felis), sealed with a perforated plastic lid and incubated in a horizontal position at room temperature and ambient humidity. After 48 h, efficacy is determined. To this end, the test tubes are stood upright and the fleas are knocked to the base of the tube. Fleas which remain motionless at the base or move in an uncoordinated manner are considered to be dead or moribund.
100% efficacy means that all the fleas were dead or moribund. 0% efficacy means that no fleas were harmed.

Musca domestica = Musca domestica test; assay type: in vivo; settings: application rate 100 ppm; adult houseflies; kill after 2 days
Experimental: (§1) Solvent: dimethyl sulphoxide
(§2) To produce an appropriate active ingredient formulation, 10 mg of active ingredient are mixed with 0.5 ml of dimethyl sulphoxide, and the concentrate is diluted with water to the desired concentration.
Vessels containing a sponge treated with sugar solution and the active ingredient formulation of the desired concentration are populated with 10 adult houseflies (Musca domestica).
After 2 days, the kill in % is determined. 100% means that all of the flies have been killed; 0% means that none of the flies have been killed.

Lucilia cuprina = Lucilia cuprina test; assay type: in vivo; settings: application rate 100 ppm; L1 larvae in minced horsemeat; kill after 2 days
Experimental: as §1, §2
About 20 L1 larvae of the Australian sheep blowfly (Lucilia cuprina) are transferred into a test vessel containing minced horsemeat and the active ingredient preparation of the desired concentration.
After 2 days, the kill in % is determined. 100% means that all the larvae have been killed; 0% means that none of the larvae have been killed.

Boophilus microplus = Boophilus microplus - injection test; assay type: in vivo; settings: application rate 20 μg/animal; injected into engorged adult female ticks; laying of fertile eggs, after 7 days
Experimental: Boophilus microplus—Injection Test
as §1
To produce an appropriate active ingredient formulation, 10 mg of active ingredient are mixed with 0.5 ml of solvent and the concentrate is diluted with solvent to the desired concentration.
1 μl of the active ingredient solution is injected into the abdomen of 5 engorged adult female cattle ticks (Boophilus microplus). The animals are transferred into dishes and kept in a climate-controlled room.
Efficacy is assessed after 7 days by laying of fertile eggs. Eggs which are not visibly fertile are stored in a climate-controlled cabinet until the larvae hatch after about 42 days. An efficacy of 100% means that none of the ticks has laid any fertile eggs; 0% means that all the eggs are fertile.

[2] = logP determination by HPLC on a reversed-phase column (C18), EEC Directive 79/831 Annex V.A8; assay type: physicochemical; settings: for logP^a): HPLC-MS method a), Table I-T3; for log P: HPLC-MS, reversed-phase column (C18)
Ctenocephalides felis [3] = assay: Ctenocephalides felis - oral test; assay type: in vivo; settings: application rate 100 ppm in citrated cattle blood; adult fleas; kill after 2 days
Experimental: Ctenocephalides felis—Oral Test
as §1
For the purpose of producing an appropriate active ingredient formulation, 10 mg of active ingredient are mixed with 0.5 ml of dimethyl sulphoxide. Dilution with citrated cattle blood gives the desired concentration.
About 20 unfed adult cat fleas (Ctenocephalides felis) are placed into a chamber which is closed at the top and bottom with gauze. A metal cylinder whose bottom end is closed with parafilm is placed onto the chamber. The cylinder contains the blood/active ingredient preparation, which can be imbibed by the fleas through the parafilm membrane.
After 2 days, the kill in % is determined. 100% means that all of the fleas have been killed; 0% means that none of the fleas have been killed.

| SMILES | efficacy (Ctenocephalides felis [1]) [%] | efficacy (Musca domestica) [%] | efficacy (Lucilia cuprina) [%] | efficacy (Boophilus microplus) [%] | logP^a) [2] | efficacy (Ctenocephalides felis [3]) [%] | log P [2] | logP ([2]; HPLC, reversed-phase C18, acetonitrile/water with formic acid, 55° C.) |
| --- | --- | --- | --- | --- | --- | --- | --- | --- |
| Cc1cc(C(F)(C(F)(F)F)C(F)(F)F)cc(C)c1-n1cc(-c2cncc(C(=O)NC3CC3)c2)cn1 [I-T3-7] | 100 | 80 | 100 | 100 | 3.4 | 100 | – | – |
| Cc1cc(C(F)(C(F)(F)F)C(F)(F)F)cc(C)c1-n1cc(-c2cccc(C(=O)NC3CC3)c2F)cn1 [I-T3-9] | 100 | – | 100 | 100 | 4.3 | 100 | – | – |
| Cc1cc(C(F)(C(F)(F)F)C(F)(F)F)cc(C)c1-n1cc(-c2cc(C(=O)NC3(C#N)CC3)c(Cl)cc2F)cn1 [I-T3-17] | 100 | – | 100 | 100 | 4.4 | 95 | – | – |
| Cc1cc(C(F)(C(F)(F)F)C(F)(F)F)cc(C)c1-n1cc(-c2cccc(C(=O)NC3CC3)c2)cn1 [I-T3-29] | 100 | 100 | 100 | 100 | 3.3 | 100 | – | – |
| Cc1cc(C(F)(C(F)(F)F)C(F)(F)F)cc(C)c1-n1cc(-c2cccc(C(=O)NC3(C#N)CC3)c2)cn1 [I-T3-30] | 100 | 90 | 100 | 100 | 3.2 | 100 | – | – |
| O=C(NC1CC1)c1cc(-c2cnn(-c3ccc(C(F)(C(F)(F)F)C(F)(F)F)cc3Cl)c2)ccc1Cl [I-T3-31] | 100 | 100 | 100 | 100 | 4.3 | 100 | – | – |
| CCc1cc(C(F)(C(F)(F)F)C(F)(F)F)cc(C)c1-n1cc(-c2ccc(Cl)c(C(=O)NC3(C#N)CC3)c2F)cn1 [I-T3-66] | – | 80 | 100 | 100 | 4.6 | 100 | – | – |
| CCc1cc(C(F)(C(F)(F)F)C(F)(F)F)cc(C)c1-n1cc(-c2ccc(Cl)c(C(=O)NC3CC3)c2F)cn1 [I-T3-68] | – | 80 | 100 | 100 | 4.8 | 100 | – | – |
| O=C(NC1CC1)c1c(Cl)ccc(-c2cnn(-c3c(Cl)cc(C(F)(C(F)(F)F)C(F)(F)F)cc3Cl)c2)c1F [I-T3-73] | – | 100 | 100 | 100 | 4.5 | 100 | – | – |
| CCc1cc(C(F)(C(F)(F)F)C(F)(F)F)cc(C)c1-n1cc(-c2cncc(C(=O)NC3(C#N)CC3)c2)cn1 [I-T3-76] | – | 90 | 90 | 100 | 3.4 | 100 | – | – |
| CCc1cc(C(F)(C(F)(F)F)C(F)(F)F)cc(C)c1-n1cc(-c2cncc(C(=O)NC3CC3)c2)cn1 [I-T3-77] | – | 100 | 100 | 100 | 3.4 | 100 | – | – |
| CCc1cc(C(F)(C(F)(F)F)C(F)(F)F)ccc1-n1cc(-c2cncc(C(=O)NC3CC3)c2)cn1 [I-T3-79] | – | 80 | 80 | 100 | 3.3 | 95 | – | – |
| Cc1cc(C(F)(C(F)(F)F)C(F)(F)F)cc(C(F)(F)F)c1-n1cc(-c2ccc(Cl)c(C(=O)NCC(F)(F)F)c2)cn1 [I-T3-84] | 100 | 100 | 100 | 100 | 4.7 | 100 | – | – |
| Cc1cc(C(F)(C(F)(F)F)C(F)(F)F)cc(C(F)(F)F)c1-n1cc(-c2ccc(Cl)c(C(=O)NC3CSC3)c2)cn1 [I-T3-85] | 100 | 100 | 100 | 100 | 4.7 | 100 | – | – |
| N#CC1(NC(=O)c2cc(-c3cnn(-c4ccc(OC(F)(F)F)cc4Cl)c3)ccc2Cl)CC1 [I-T3-89] | – | 100 | 100 | 100 | 3.5 | 100 | – | – |
| Cc1ncc(-c2cnn(-c3c(Cl)cc(C(F)(F)F)cc3Cl)c2)cc1C(=O)NC1CC1 [I-T3-127] | 100 | – | 90 | 100 | – | 100 | 2.5 | – |
| Cc1ncc(-c2cnn(-c3c(Cl)cc(C(F)(F)F)cc3Cl)c2)cc1C(=O)N(C)C1CC1 [I-T3-128] | 100 | – | – | 100 | – | 100 | 2.8 | – |
| Cc1ncc(-c2cnn(-c3c(Cl)cc(C(F)(F)F)cc3Cl)c2)cc1C(=O)NC1(C#N)CC1 [I-T3-129] | 100 | 80 | – | 100 | – | 100 | 2.6 | – |
| Cc1ncc(-c2cnn(-c3c(Cl)cc(C(F)(F)F)cc3Cl)c2)cc1C(=O)N(C)C1(C#N)CC1 [I-T3-132] | 100 | – | – | 100 | – | 100 | 2.9 | – |
| COCCNc1ncc(-c2cnn(-c3c(Cl)cc(C(F)(C(F)(F)F)C(F)(F)F)cc3Cl)c2)cc1C(=O)NC1CC1 [I-T3-138] | 100 | – | – | – | – | – | 4.1 | – |
| Cc1cc(C(F)(C(F)(F)F)C(F)(F)F)cc(C)c1-n1cc(-c2cnc(C3CC3)c(C(=O)NC3(C#N)CC3)c2)cn1 [I-T3-139] | – | 90 | 100 | 100 | – | 100 | 4.1 | – |
| COc1ncc(-c2cnn(-c3c(C)cc(C(F)(C(F)(F)F)C(F)(F)F)cc3C)c2)cc1C(=O)N(C)C1CC1 [I-T3-144] | – | 100 | 100 | 100 | – | 90 | 4.4 | – |
| CCNC(=O)c1cc(-c2cnn(-c3c(Cl)cc(C(F)(F)F)cc3Cl)c2)cnc1C [I-T3-147] | 100 | – | – | – | – | – | 4.0 | – |
| N#CC1(NC(=O)c2cc(-c3cnn(-c4ncc(C(F)(F)F)cc4C(F)(F)F)c3)ccc2Cl)CC1 [I-T3-149] | – | 100 | 100 | 100 | – | 100 | 3.5 | – |
| O=C(NC1CC1)c1cc(-c2cnn(-c3ncc(C(F)(F)F)cc3C(F)(F)F)c2)ccc1Cl [I-T3-150] | – | 100 | 100 | 100 | – | 100 | 3.6 | – |
| N#CC1(NC(=O)c2cc(-c3cnn(-c4ncc(C(F)(C(F)(F)F)C(F)(F)F)cc4Cl)c3)ccc2Cl)CC1 [I-T3-151] | – | 100 | 100 | 100 | – | 100 | 4.0 | – |
| N#CC1(CNC(=O)c2cc(-c3cnn(-c4c(Cl)cc(C(F)(C(F)(F)F)C(F)(F)F)cc4C(F)(F)F)c3)ccc2Cl)CC1 [I-T3-199] | 100 | – | – | – | – | – | – | – |
| Cc1cc(C(F)(C(F)(F)F)C(F)(F)F)cc(C)c1-n1ccc(-c2ccc(Cl)c(C(=O)NC3CC3)c2)c1 [I-T46-2] | 100 | – | 100 | 100 | – | 100 | – | 5.0 |

— patent publication US9758485B2, “Compounds for controlling arthropods” (priority 2013, dated 2017)
